Assay results as given in patent US10757937B2, “Sulfonamides that activate ABA receptors” (The Regents of the University of California, priority 2014, dated 2020).
Like-named read-outs stand apart in the source and are kept apart here.

Assays:
PYL6 = target: T1, PYL6 (Arabidopsis thaliana, UniProt Q8S8E3); assay: receptor-mediated PP2C (HAB1) inhibition in vitro assay; assay type: biochemical; conditions: for remaining activity at 50 µM: 50 uM of the test compound
T1 construct: 6X-His; made in house; host or cells: E. coli BL21[DE3]pLysS
T1 sequence (Q8S8E3 1-215): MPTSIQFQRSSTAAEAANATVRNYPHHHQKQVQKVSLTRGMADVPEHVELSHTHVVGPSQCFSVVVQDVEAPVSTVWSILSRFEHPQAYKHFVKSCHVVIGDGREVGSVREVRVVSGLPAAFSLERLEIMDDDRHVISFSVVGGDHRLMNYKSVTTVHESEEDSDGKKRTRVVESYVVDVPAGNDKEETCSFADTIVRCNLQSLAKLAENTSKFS
T1 sequence (Q9CAJ0 23-511 partner): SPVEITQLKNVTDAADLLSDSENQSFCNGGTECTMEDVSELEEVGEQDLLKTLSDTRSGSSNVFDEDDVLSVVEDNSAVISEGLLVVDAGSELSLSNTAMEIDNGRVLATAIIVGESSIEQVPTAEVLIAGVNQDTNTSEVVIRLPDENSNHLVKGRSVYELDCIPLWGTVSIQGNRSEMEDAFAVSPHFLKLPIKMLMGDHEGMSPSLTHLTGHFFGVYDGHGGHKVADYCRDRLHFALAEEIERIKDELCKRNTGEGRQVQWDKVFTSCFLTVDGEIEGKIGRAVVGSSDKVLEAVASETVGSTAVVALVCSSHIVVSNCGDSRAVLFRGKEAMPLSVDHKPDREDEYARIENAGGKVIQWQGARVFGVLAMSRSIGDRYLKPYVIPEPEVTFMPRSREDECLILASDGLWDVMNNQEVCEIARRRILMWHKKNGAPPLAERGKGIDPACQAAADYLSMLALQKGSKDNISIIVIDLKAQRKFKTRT
Method in brief: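 His-tagged receptors (MBP fusion for PYL11) at 2:1 ratio to 50 nM GST-HAB1 in 100 mM Tris-OAc pH 7.9, 100 mM NaCl, 1 mM MnCl2; 4-methylumbelliferyl-phosphate fluorogenic substrate. Compounds at 50 uM (ABA 10 uM); IC50 from dose curves for selected compounds.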

PYL8 = target: T2, PYL8 (Arabidopsis thaliana, UniProt Q9FGM1); assay: as above; assay type: biochemical; conditions: for remaining activity at 50 µM: 50 uM of the test compound; for remaining activity at 25 µM: compound at 25 μM, control without agonist = 100%
T2 construct: 6X-His; made in house; host or cells: E. coli BL21[DE3]pLysS
T2 sequence (Q9FGM1 1-188): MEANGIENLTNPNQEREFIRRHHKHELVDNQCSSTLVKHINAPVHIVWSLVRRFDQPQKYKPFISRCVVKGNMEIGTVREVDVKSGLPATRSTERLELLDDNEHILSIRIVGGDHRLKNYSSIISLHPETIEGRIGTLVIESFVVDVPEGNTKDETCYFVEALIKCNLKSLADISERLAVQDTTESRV
T2 sequence (Q9CAJ0 23-511 partner): T1 sequence (Q9CAJ0 23-511 partner)
Method in brief: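 Fluorogenic readout: 4-methylumbelliferyl-phosphate hydrolysis by 50 nM GST-HAB1 plus 2:1 His-receptor; Tris-OAc pH 7.9, NaCl, 1 mM MnCl2, β-ME. Compounds at 25 μM or 50 uM single dose; IC50 from dose curves for selected compounds.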

PYL4 = target: T3, PYL4 (Arabidopsis thaliana, UniProt O80920); assay: as above; assay type: biochemical; conditions: for remaining activity at 50 µM: 50 uM of the test compound; for remaining activity at 25 µM: compound at 25 μM, control without agonist = 100%
T3 construct: 6X-His; made in house; host or cells: E. coli BL21[DE3]pLysS
T3 sequence (O80920 1-207): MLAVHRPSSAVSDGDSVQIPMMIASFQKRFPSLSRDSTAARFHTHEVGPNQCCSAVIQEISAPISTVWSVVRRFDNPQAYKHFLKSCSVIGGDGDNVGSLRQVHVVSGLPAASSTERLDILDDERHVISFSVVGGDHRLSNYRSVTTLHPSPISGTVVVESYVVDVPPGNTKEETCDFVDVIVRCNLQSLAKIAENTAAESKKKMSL
T3 sequence (Q9CAJ0 23-511 partner): T1 sequence (Q9CAJ0 23-511 partner)
Method in brief: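 Compounds, tested at 25 μM or 50 uM with ABA at 10 uM, were incubated with recombinant receptor and 50 nM GST-HAB1 (2:1 ratio) in MnCl2-containing Tris-OAc buffer, pH 7.9. Phosphatase activity was followed by 4-methylumbelliferyl-phosphate fluorescence.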

[1] = tested on: Arabidopsis seed germination and hypocotyl growth; assay: Arabidopsis seed germination and hypocotyl growth; assay type: in vivo; conditions: for minimal effective concentration: Arabidopsis thaliana; for Germination Inhibition / Hypocotyl Growth Inhibition: Germination Inhibition II, tested at 10 and 50 uM; for Germination Inhibition: lowest of the two concentrations that inhibited; for Hypocotyl Growth Inhibition: lowest concentration that inhibited hypocotyl growth in wells where seeds germinated
Method in brief: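 Wild-type seeds germinated on ½× Murashige and Skoog medium with compound at 10 and 50 uM, or in a later series at 1, 5, 10, 25 and 50 uM. Reported value is the lowest tested concentration that inhibited germination or hypocotyl growth in wells where seeds germinated.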

[2] = Table XII-B, calculated from dose curves, read-out: PP2C Activity (IC50 in uM) PYL6
[3] = Table XII-B, calculated from dose curves, read-out: PP2C Activity (IC50 in uM) PYL8
[4] = Table XII-B, calculated from dose curves, read-out: PP2C Activity (IC50 in uM) PYL4
[5] = Germination Effects III, tested at 1, 5, 10, 25 and 50 uM, lowest concentration inhibiting hypocotyl growth, — = none, read-out: Growth Inhibition
[6] = Germination Effects III, tested at 1, 5, 10, 25 and 50 uM, lowest inhibiting concentration, — = none, read-out: Germination Inhibition
[7] = Table VII, read-out: PP2C Dose Curves PYL6 (IC50)
[8] = Table VII, read-out: PP2C Dose Curves PYL8 (IC50)
[9] = Table VIII, tested at 10 or 50 μM, ABA at 1 μM, lowest inhibiting concentration, − = none, read-out: Germination Inhibition
[10] = Table VIII, tested at 10 or 50 μM, lowest inhibiting concentration, − = none, read-out: Hypocotyl Growth Inhibition

| SMILES | remaining activity at 50 µM (PYL6) | IC50 (PYL6; [2]) | remaining activity at 50 µM (PYL8) | IC50 (PYL8; [3]) | remaining activity at 50 µM (PYL4) | IC50 (PYL4; [4]) | minimal effective concentration [1, 5] | minimal effective concentration [1, 6] | IC50 (PYL6; [7]) | IC50 (PYL8; [8]) | remaining activity at 25 µM (PYL8) | IC50 (PYL4; Table VII, read-out: PP2C Dose Curves PYL4 (IC50)) | remaining activity at 25 µM (PYL4) | minimal effective concentration [1, 9] | Germination Inhibition ([1]; − = none) | minimal effective concentration [1, 10] | Hypocotyl Growth Inhibition ([1]; − = none) |
| --- | --- | --- | --- | --- | --- | --- | --- | --- | --- | --- | --- | --- | --- | --- | --- | --- | --- |
| N#Cc1ccc(CS(=O)(=O)NC(=O)C2(c3cccs3)CCCCC2)cc1 [Compound 75, N-[(4-Cyanophenyl)methanesulfonyl]-1-(thiophen-2-yl)cyclohexane-1-carboxamide] | 57.2% | > 50 µM | 14.9% | 0.134 µM | 98% | > 50 µM | 5 µM | 5 µM |  |  |  |  |  |  |  |  |  |
| CC(C)COC(=O)NS(=O)(=O)Cc1ccc(C#N)cc1 [Compound 65, 2-Methylpropyl N-[(4-cyanophenyl)methanesulfonyl]carbamate] | 58.9% | > 50 µM | 35.8% | 20.4 µM | 95.5% | > 50 µM | 50 µM |  |  |  |  |  |  |  |  |  |  |
| N#Cc1ccc(CS(=O)(=O)NC(=O)C2(c3ccsc3)CCCCC2)cc1Br [Compound 106, N-[(4-Cyano-3-bromophenyl)methanesulfonyl]-1-(thiophen-3-yl)cyclohexane-1-carboxamide] | 17.6% | 7.84 µM | 13.6% | 0.037 µM | 89.2% | > 50 µM | 1 µM | 1 µM |  |  |  |  |  |  |  |  |  |
| N#Cc1ccc(CS(=O)(=O)NC(=O)C2(c3ccc(F)cc3)CCCC2)cc1 [Compound 24] |  |  |  |  |  |  |  |  | > 50 µM | 6.38 µM | 21% | > 50 µM | 92% | 10 µM | 10 µM |  |  |
| N#Cc1ccc(CS(=O)(=O)NC(=O)C2(c3ccc(Br)cc3)CC2)cc1 [Compound 30] |  |  |  |  |  |  |  |  | > 50 µM | > 50 µM | 82% |  | 90% |  |  | 50 µM | 50 µM |
| N#Cc1ccc(CS(=O)(=O)NC(=O)C2(c3ccc(F)cc3)CC2)cc1 [Compound 35] |  |  |  |  |  |  |  |  | 34.7 µM | > 50 µM | 62% |  | 94% |  |  | 10 µM | 10 µM |
| CC1CCC(C(=O)NS(=O)(=O)Cc2ccc(C#N)cc2)(c2ccc(F)cc2)CC1 (centres unmarked) [Compound 67, N-[(4-Cyanophenyl)methanesulfonyl]-1-(4-fluorophenyl)-4-methylcyclohexane-1-carboxamide] | 46.6% |  | 25.8% | 9.6 µM | 91.9% | > 50 µM | 10 µM | 25 µM |  |  |  |  |  |  |  |  |  |
| CC(C)(C(=O)NS(=O)(=O)Cc1ccc(C#N)cc1)c1ccc(F)cc1 [Compound 13] |  |  |  |  |  |  | 5 µM | 10 µM | 18.9 µM | 4.45 µM | 32% |  | 98% | 10 µM | 10 µM | 10 µM |  |
| N#Cc1ccc(CS(=O)(=O)NC(=O)C2(c3ccc(F)cc3)CCCCC2)cc1 [Compound 51] |  |  |  |  |  |  |  |  | > 50 µM | 1.11 µM | 16% |  | 93% | 10 µM | 10 µM |  |  |
| N#Cc1ccc(CS(=O)(=O)NC(=O)C2(c3ccsc3)CCCCC2)cc1 [Compound 78, N-[(4-Cyanophenyl)methanesulfonyl]-1-(thiophen-3-yl)cyclohexane-1-carboxamide] | 44.9% | 25 µM | 14.3% | 0.073 µM | 102% | > 50 µM | 2.5 µM | 2.5 µM |  |  |  |  |  |  |  |  |  |
| N#Cc1ccc(CS(=O)(=O)NC(=O)C2(c3ccccc3)CCC2)cc1 [Compound 29] |  |  |  |  |  |  |  |  | > 50 µM | 3.36 µM | 28% |  | 96% | 50 µM | 50 µM | 10 µM | 10 µM |
| COc1ccccc1C1(C(=O)NS(=O)(=O)Cc2ccc(C#N)cc2)CCC1 [Compound 42] |  |  |  |  |  |  |  |  | > 50 µM | 52.4 µM | 65% |  | 88% | 50 µM | 50 µM | 10 µM | 10 µM |
| CC(C)(C(=O)NS(=O)(=O)Cc1ccc(C#N)cc1)c1ccc(Cl)cc1 [Compound 6] |  |  |  |  |  |  |  |  | > 50 µM | 26.3 µM | 52% |  | 90% | 50 µM | 50 µM | 10 µM | 10 µM |
| N#Cc1ccc(CS(=O)(=O)NC(=O)C2(c3ccccc3)CCCCC2)cc1 [Compound 69, N-[(4-Cyanophenyl)methanesulfonyl]-1-phenylcyclohexane-1-carboxamide] | 72.6% | > 50 µM | 14.7% | 0.75 µM | 95% | > 50 µM | 1 µM | 5 µM |  |  |  |  |  |  |  |  |  |
